Laboratory results from PubChem BioAssay (NCI).
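Values below derive from 48-hour exposures of cells grown in 96-well plates, with endpoints linearly interpolated between the two concentrations bracketing the appropriate inhibition level. GI50 is the concentration that inhibits growth by half. TGI: concentration producing complete growth inhibition.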

Legend:
Experiment in all cases: NCI anticancer screen, dose series, 48 h
[1] = tested on: 786-0 renal
[2] = tested on: A498 renal
[3] = tested on: A549 NSCLC
[4] = tested on: ACHN renal
[5] = tested on: BT-549 breast
[6] = tested on: CAKI-1 renal
[7] = tested on: CCRF-CEM leukemia
[8] = tested on: COLO 205 colon
[9] = tested on: DU-145 prostate
[10] = tested on: EKVX NSCLC
[11] = tested on: HCC-2998 colon
[12] = tested on: HCT-116 colon
[13] = tested on: HCT-15 colon
[14] = tested on: HL-60(TB) leukemia
[15] = tested on: HOP-62 NSCLC
[16] = tested on: HT29 colon
[17] = tested on: IGROV1 ovarian
[18] = tested on: K-562 leukemia
[19] = tested on: KM12 colon
[20] = tested on: M14 melanoma
[21] = tested on: MALME-3M melanoma
[22] = tested on: MCF7 breast
[23] = tested on: MOLT-4 leukemia
[24] = tested on: NCI-H226 lung
[25] = tested on: NCI-H23 lung
[26] = tested on: NCI-H460 lung
[27] = tested on: NCI-H522 lung
[28] = tested on: NCI/ADR-RES ovarian
[29] = tested on: OVCAR-3 ovarian
[30] = tested on: OVCAR-5 ovarian
[31] = tested on: OVCAR-8 ovarian
[32] = tested on: PC-3 prostate
[33] = tested on: RPMI-8226 leukemia
[34] = tested on: RXF 393 renal
[35] = tested on: SF-268 CNS
[36] = tested on: SF-295 CNS
[37] = tested on: SF-539 CNS
[38] = tested on: SK-MEL-2 melanoma
[39] = tested on: SK-MEL-28 melanoma
[40] = tested on: SK-MEL-5 melanoma
[41] = tested on: SK-OV-3 ovarian
[42] = tested on: SN12C renal
[43] = tested on: SNB-19 CNS
[44] = tested on: SNB-75 CNS
[45] = tested on: SR leukemia
[46] = tested on: SW-620 colon
[47] = tested on: TK-10 renal
[48] = tested on: U251 CNS
[49] = tested on: UACC-257 melanoma
[50] = tested on: UACC-62 melanoma
[51] = tested on: UO-31 renal
[52] = tested on: HOP-92 NSCLC
[53] = tested on: HS 578T breast
[54] = tested on: LOX IMVI melanoma
[55] = tested on: MDA-MB-231 breast
[56] = tested on: MDA-MB-435
[57] = tested on: T-47D breast

## COc1c(Br)cc(/C=C(\C#N)c2ccccn2)cc1Br
[1]
  TGI: 25.6 µM
[2]
  TGI: 9.57 µM
[3]
  TGI: > 100 µM
[4]
  TGI: > 100 µM
[5]
  TGI: 94.8 µM
[6]
  TGI: > 100 µM
[7]
  TGI: > 100 µM
[8]
  TGI: > 100 µM
[9]
  TGI: > 100 µM
[10]
  TGI: 50.9 µM
[11]
  TGI: > 100 µM
[12]
  TGI: > 100 µM
[13]
  TGI: > 100 µM
[14]
  TGI: > 100 µM
[15]
  TGI: 89.1 µM
[16]
  TGI: > 100 µM
[17]
  TGI: > 100 µM
[18]
  TGI: > 100 µM
[19]
  TGI: > 100 µM
[20]
  TGI: > 100 µM
[21]
  TGI: > 100 µM
[22]
  TGI: > 100 µM
[23]
  TGI: > 100 µM
[24]
  TGI: > 100 µM
[25]
  TGI: > 100 µM
[26]
  TGI: > 100 µM
[27]
  TGI: > 100 µM
[28]
  TGI: > 100 µM
[29]
  TGI: > 100 µM
[30]
  TGI: > 100 µM
[31]
  TGI: > 100 µM
[32]
  TGI: > 100 µM
[33]
  TGI: > 100 µM
[34]
  TGI: 75.1 µM
[35]
  TGI: > 100 µM
[36]
  TGI: > 100 µM
[37]
  TGI: > 100 µM
[38]
  TGI: 41.8 µM
[39]
  TGI: > 100 µM
[40]
  TGI: > 100 µM
[41]
  TGI: > 100 µM
[42]
  TGI: > 100 µM
[43]
  TGI: > 100 µM
[44]
  TGI: 17.1 µM
[45]
  TGI: > 100 µM
[46]
  TGI: > 100 µM
[47]
  TGI: > 100 µM
[48]
  TGI: > 100 µM
[49]
  TGI: > 100 µM
[50]
  TGI: 73.8 µM
[51]
  TGI: > 100 µM

## O=C(O)c1cn(C2CC2)c2cc(N3CCN(Cc4ccc5ccccc5c4O)CC3)c(F)cc2c1=O
[1]
  GI50: 2.34 µM
  TGI: 5.42 µM
[2]
  GI50: 2.09 µM
  TGI: 4.67 µM
[3]
  GI50: 3.29 µM
  TGI: > 100 µM
[8]
  GI50: 3.27 µM
  TGI: > 100 µM
[10]
  GI50: > 100 µM
  TGI: > 100 µM
[13]
  GI50: 3.22 µM
  TGI: > 100 µM
[14]
  GI50: > 100 µM
  TGI: > 100 µM
[15]
  GI50: 2.45 µM
  TGI: 9.36 µM
[52]
  GI50: 2.15 µM
  TGI: 5.44 µM
[53]
  GI50: 2.3 µM
  TGI: 6.9 µM
[16]
  GI50: 4.35 µM
  TGI: > 100 µM
[17]
  GI50: 4.91 µM
  TGI: > 100 µM
[54]
  GI50: 3.13 µM
  TGI: > 100 µM
[20]
  GI50: 3.18 µM
  TGI: > 100 µM
[22]
  GI50: 3.63 µM
  TGI: > 100 µM
[55]
  GI50: 3.41 µM
  TGI: > 100 µM
[56]
  GI50: 3.12 µM
  TGI: > 100 µM
[24]
  GI50: 3.14 µM
  TGI: > 100 µM
[25]
  GI50: 3.51 µM
  TGI: > 100 µM
[31]
  GI50: 3.74 µM
  TGI: > 100 µM
[34]
  GI50: 2.29 µM
  TGI: 5.64 µM
[35]
  GI50: 8.13 µM
  TGI: > 100 µM
[36]
  GI50: 4.29 µM
  TGI: > 100 µM
[38]
  GI50: 5.11 µM
  TGI: > 100 µM
[39]
  GI50: 3.71 µM
  TGI: > 100 µM
[40]
  GI50: 3.78 µM
  TGI: > 100 µM
[41]
  GI50: 3.68 µM
  TGI: > 100 µM
[42]
  GI50: 3.44 µM
  TGI: > 100 µM
[43]
  GI50: 29.8 µM
  TGI: > 100 µM
[44]
  GI50: 1.87 µM
  TGI: 6.73 µM
[57]
  GI50: > 100 µM
  TGI: > 100 µM
[48]
  GI50: 4.87 µM
  TGI: > 100 µM
[50]
  GI50: 5.06 µM
  TGI: > 100 µM
